The values that follow come from patent US20140212493A1, “Highly Bioavailable Composition Containing Eprosartan - Poloxamer Complex or 2-(7-Chloro-5-Methyl-4-Oxo-3-Phenyl-4,5-Dihydro-3H-Pyridazine (4,5-b)Indol-1-yl)-N,N-Dimethylacetamide - Poloxamer Complex” (BVM Holding Co., priority 2003, published 2014).

Where a name gives a salt, the structure may show the parent alone.

A short description of data set [1]: Dissolution of EPM and EPM-poloxamer complexes, USP apparatus II, SGF. It counts as physicochemical. The note with it: equivalent to 400 mg dose, SGF without pepsin, 37° C., 25 rpm. Here is the method:
(§1) The dissolution rate of the association complex may be carried out using a suitable solvent such as 0.1 N HCl purified water, or simulated gastric fluid, as dissolution medium. The testing is conducted under conditions intended to simulate ingestions at about 37° C. and from about 25 to about 75 rpm. The dissolution may be tested using any method known in the art such as USP apparatus I (a basket apparatus) or USP apparatus II (a paddle apparatus) (USP 27/NF 22, 2004, <711>, page 2303). Samples of the solution are taken at preselected intervals such as at every fifteen minutes up to one hour.
Lutrol F-68, 1.0 gm, and EPM, 1.0 gm, are mixed in a jacketed vessel (KG5) heated to 53° C. while mixing for about 2 hrs. The resulting complex, in the form of free flowing granules, thus formed is allowed cool to room temperature and sieved through a 40 mesh screen. The dissolution of the complex equivalent to the 400 mg dose is determined using USP apparatus II, 900 ml of SGF (simulated gastric fluid without pepsin) as the dissolution medium at 37° C. and 25 rpm.
The dissolution of the complex equivalent to a 400 mg dose is determined using USP apparatus II, in SGF as the dissolution medium at 37° C. and 25 rpm.

Data set [2] can be described thus: Dissolution of NZ and NZ-poloxamer complex, USP apparatus II, purified water. The note with it: equivalent to 20mg drug, 1000 ml purified water, 37° C., 75 rpm. It counts as physicochemical. The protocol: as §1
Lutrol F-68 and NZ, 250 mg are mixed in a jacketed vessel (KG 5) and heated to 53° C. while mixing for about 2 hours. The resulting complex thus formed is allowed to cool to room temperature and sieved through a 40 mesh screen. The dissolution of the complex equivalent to 20mg drug is determined using USP apparatus II, 1000 ml of purified water as the dissolution medium at 37° C. and 75 rpm.

For the compound `CCCCc1ncc(/C=C(\Cc2cccs2)C(=O)O)n1Cc1ccc(C(=O)O)cc1` [EPM, eprosartan mesylate], the “% DISSOLVED” value in data set [1] (15 minutes) is 38.7%; in data set [1] (30 minutes) it was 51.9%; in data set [1] (45 minutes), 61.3%; in data set [1] (60 minutes), 61.7%.

Regarding `CN(C)C(=O)Cc1nn(-c2ccccc2)c(=O)c2c1c1ccc(Cl)cc1n2C` [NZ, 2-(7-chloro-5-methyl-4-oxo-3-phenyl-4,5 dihydro-3H-pyridazino (4,5-b)-indol-1-yl)-N,N-dimethylacetamide], the “% DISSOLVED” value was 0.65% in data set [2] (15 minutes), 1.90% in data set [2] (30 minutes), 2.53% in data set [2] (45 minutes) and 3.14% in data set [2] (60 minutes).
